From patent publication US8420696B2, “Use of low-dose ladostigil for neuroprotection” (priority 2005, dated 2013)
Values joined by “and” are separate entries in the source; they are usually repeats but may differ in a detail not shown here. Equal values may be shown once. “Also recorded” adds a separate entry of the source.

Legend:
[1] = test system: microglia and astrocytes; experiment: Example 2: microglia and astrocyte activation at cannula penetration site after icv STZ; assay type: in vivo, Sprague-Dawley rats
Protocol: Male Sprague-Dawley rats (63) weighing 320-340 g, aged 4 months, were anesthetized by an intraperitoneal injection of Equithesin 0.3 ml/kg. STZ (0.5 mg) dissolved in 2 μl artificial cerebrospinal fluid (CSF) was injected into each lateral ventricle of 45 rats. The stereotaxic co-ordinates for icv injection were: 0.9 mm posterior, 1.8 mm lateral and 3.8 mm ventral from the bregma level. Control rats (18) received a bilateral injection of 2 μl artificial CSF. STZ-injected rats (25) were given ladostigil (1 mg/kg of the hemitartrate salt/day) orally in a volume of (1 ml/kg) from one week before, until 1 or 8 weeks after icv STZ. The remaining 20 rats received 1 ml/kg water. The rats were housed two per cage with free access to food and water until the behavioral, enzymatic and cytochemical measurements were completed.
One week after icv injection, 8 rats injected with icv CSF, 7 rats given STZ alone, and 7 treated with ladostigil were anesthetized with sodium pentobarbitone, perfused transcardially and the brains processed for immunocytochemistry. […]
Nitrotyrosine, (NT) a marker of nitrative/oxidative stress, was stained with rabbit anti-nitrotyrosine from Upstate (Lake Placid, N.Y., USA), diluted 1:100 followed by the secondary donkey anti-rabbit conjugated with horseradish peroxidase from Chemicon (Temecula, Calif., USA), was diluted 1:200. […] Images were obtained by bright field microscopy and quantitative assessments of appropriate markers were made using AnalySIS software. […]
Three distinct zones were distinguished in the vicinity of the cortical injection site after icv STZ injection containing astrocytes and microglia with differing morphology. Quantification of microglia and astrocytes in the three zones was made in sections sampled in a range of P0.2-0.8 mm from the bregma. The area of each zone containing the different types of astrocytes was measured and the percentage that each zone occupied in the wound area was calculated (Statistica software, StatSoft, USA). The classes of microglia were counted separately in each zone. […]

[2] = test system: ChE; experiment: Example 2: total ChE activity in cortex, hippocampus and plasma after ladostigil treatment; assay type: in vivo, rats
Protocol: (§1) The effect of chronic ladostigil treatment on ChE activity in the cortex and hippocampus of rats was determined one week after icv STZ in 12 rats (3 treated with water and 9 with ladostigil). The effect of acute treatment with ladostigil 1 or 17 mg/kg was determined 2 hrs after drug administration. […] The brain was rapidly removed, washed with saline on ice and the cortex, hippocampus and striatum dissected out, quickly weighed and stored at −70° C. until assay. Total ChE activity in the cortex and hippocampus was measured as described in Wang et al., Gender differences in the effect of rivastigmine on brain cholinesterase activity and cognitive function in rats, Neuropharmacology (2000) 39:497-506, using the spectrophotometric method of Ellman et al., A new and rapid colorimetric determination of acetylcholinesterase activity, Biochem. Pharmacol. (1961) 7:88-95 with acetylthiocholine (Sigma Ltd) as a substrate using homogenate of 100 mg tissue in 1 ml phosphate buffer. To determine only butyrylcholinesterase (BuChE) activity the amounts of tissue/ml of buffer were increased 3-fold and butyrylthiocholine (Sigma Ltd) was used as a substrate. MAO A and B activity was measured in homogenates of striatum as described in Weinstock et al., Limited potentiation of blood pressure response to oral tyramine by brain-selective monoamine oxidase A-B inhibitor, TV-3326 in conscious rabbits, Neuropharmacology (2002) 43:999-1005.

[3] = target: T1, MAO-A (Rattus norvegicus, UniProt P21396); experiment: Example 2: MAO-A activity in homogenates of striatum; assay type: in vivo, rats; settings: chronic 1 mg/kg; for MAO-A (%) inhibition: Striatum
T1 construct: from tissue; host or cells: striatum homogenate of dosed Sprague-Dawley rats
T1 sequence (P21396 1-526): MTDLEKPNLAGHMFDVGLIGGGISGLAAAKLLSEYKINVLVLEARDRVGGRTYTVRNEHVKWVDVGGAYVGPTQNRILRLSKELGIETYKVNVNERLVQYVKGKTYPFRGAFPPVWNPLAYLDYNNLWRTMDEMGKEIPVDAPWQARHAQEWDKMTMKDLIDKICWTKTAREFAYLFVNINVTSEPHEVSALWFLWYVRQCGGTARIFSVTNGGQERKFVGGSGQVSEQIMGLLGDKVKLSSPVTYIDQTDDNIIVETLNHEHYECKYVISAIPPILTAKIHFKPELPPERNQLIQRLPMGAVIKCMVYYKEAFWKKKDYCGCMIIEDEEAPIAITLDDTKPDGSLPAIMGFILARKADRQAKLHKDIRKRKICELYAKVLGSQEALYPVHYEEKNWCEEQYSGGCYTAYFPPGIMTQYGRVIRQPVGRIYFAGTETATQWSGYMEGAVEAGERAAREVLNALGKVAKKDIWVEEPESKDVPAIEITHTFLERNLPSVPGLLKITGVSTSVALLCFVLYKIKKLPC
Protocol: as §1

[4] = test system: aged rats (spatial learning); experiment: Example 3: spatial learning of aged rats in Morris water maze; assay type: in vivo, Wistar rats; settings: 1 mg/kg/day in drinking fluid for four months from age 16 months
Protocol: Experiments were performed in 30 male rats of the Wistar strain. […] The rats were housed in pairs at an ambient temperature of 21° C. They were weighed once weekly and their fluid intake measured daily for two weeks and then twice weekly for the remaining 4 months. Ten of the rats were started on ladostigil 1 mg/kg/day in the drinking fluid when aged 16 months and given the drug for four months. The remaining 10 rats of the same age were given regular drinking water. At the end of the four months spatial memory of these 20 rats and of another 10 aged 3 months was tested in the Morris water maze as previously described (Shoham et al, 2006).

## C#CCN[C@@H]1CCc2ccc(OC(=O)N(C)CC)cc21 [ladostigil, R(+)-6-(N-methyl,N-ethyl-carbamoyloxy)-N′-propargyl-1-aminoindan]
[1]; 1 mg/kg/day hemitartrate orally, seven days after icv STZ
  Changes in microglia and astrocytes in zones i) and iii) resulting from icv STZ: prevented the changes
[1]; 1 mg/kg/day orally, seven days after icv STZ
  Density of fibrous microglia in zone ii): no effect
[1]; eight weeks after icv STZ, with or without ladostigil
  Scar morphology at cannula penetration site: No differences
[2]; Cortex, 60 min after last dose, chronic 1 mg/kg, seven days after icv STZ
  ChE (%) inhibition: 16.1 ± 4.7 %
[2]; Cortex, 120 min after last dose, chronic 1 mg/kg, seven days after icv STZ
  ChE (%) inhibition: 23.6 ± 3.1 %
[2]; Hippocampus, 60 min, chronic 1 mg/kg
  ChE (%) inhibition: 4.9 ± 2.6%
[2]; Hippocampus, 120 min, chronic 1 mg/kg
  ChE (%) inhibition: 5.9 ± 3.2%
[2]; Plasma, 120 min, chronic 1 mg/kg
  ChE (%) inhibition: 20 ± 2%
[2]; acute administration 1 mg/kg
  ChE inhibition in the hippocampus or plasma: not in the hippocampus or plasma
[2]; acute administration 17 mg/kg, 17 mg/kg
  ChE inhibition in both brain regions and in plasma: 40-42% and 40%
[2]; chronic 1 mg/kg
  Inhibition of ChE activity in the plasma: 20%
  Inhibition of ChE in the hippocampus: no ChE inhibition occurred; also recorded: no significant AChE inhibition occurred
[2]; chronic 1 mg/kg, seven days after icv STZ, 1 or 2 hrs after the last dose
  Inhibition of total ChE activity in the cortex: 24% and 28% and ~20%
[3]; 60 min
  MAO-A (%) inhibition: 2.8 ± 2.5%
[3]; 120 min
  MAO-A (%) inhibition: 3.8 ± 2.0%
[3]
  Effect on striatal MAO-A activity: no effect
[4]
  Difference in spatial learning between young and old rats (Morris water maze): substantially abolished
